SMILES strings stand for the structures.

What all share (assay type): in vivo
The test system of assay [1] is cabbage moth (Plutella xylostella). As to the kind of experiment: Test Example 7: spray on cabbage seedling, cabbage moth larvae, 500 ppm. The settings on record: 120 h, spray 20 mL/cup on cabbage, 2nd instar larvae, 25° C., 5 days, read-out: morality of insects. How it is done: (§1) Meanwhile, cabbage seedling (on the developmental stage of the third true leaf) was planted in a polyethylene cup, and each of the test chemical solution was sprayed into the cabbage seedling in a ratio of 20 mL/cup. After the test chemical solution was dried, the stem and leaf thereof was cut out and then installed into a 50 mL cup. Five (5) heads of 2nd instar larvae of cabbage moth (Plutella xylostella) were released into the cup, and the cup was covered with a lid. After the cup was stored at 25° C. for 5 days, the number of the dead insects was counted, and the mortality of insects was calculated by the following equation. Morality (%)=([…]the number of the dead insects/the number of the test insects)×100

Assay [2] has the same test system. As to the kind of experiment: Test Example 8: spray on cabbage seedling, cabbage moth larvae, 200 ppm. Particulars: 120 h, spray 20 mL/cup on cabbage, 2nd instar larvae, 25° C., 5 days, read-out: morality of insects. How it is done: as §1, with “of the surviving insects/the number” for “of the dead insects/the number”
The subject of assay [3] is cotton aphid (Aphis gossypii). Put plainly: Test Example 1: foliar spray on cucumber seedling infested with cotton aphid, 500 ppm. Particulars: 144 h, spray 20 mL/seedling on cucumber, 6 days after spraying, read-out: controlling value.
The test system of assay [4] is cucurbit leaf beetle (Aulacophora femoralis). Put plainly: Test Example 11: spray on cucumber seedling, cucurbit leaf beetle larvae, 50 ppm. Particulars: 120 h, Formulation example 1, spray 30 mL/cup on cucumber, second instar larvae, 25° C., 5 days, read-out: morality of insects. How it is done:
Meanwhile, cucumber seedling (on the developmental stage of the third true leaf) was planted in a polyethylene cup, and each of the test chemical solution was sprayed into the seedling in a ratio of 30 mL/cup. After the test chemical solution was dried, the second leaf thereof was cut out, and then installed into a 200 mL cup. Ten (10) heads of the second instar larvae of cucurbit leaf beetle (Aulacophora femoralis) were released into the cup, and the cup was covered with a lid. After the cup was stored at 25° C. for 5 days, the number of the dead insects was counted, and the mortality of insects was calculated by the following equation. Morality (%)−{the number of the dead insects/the number of the test isects}×100

Assay [5] deals with housefly (Musca domestica). As to the kind of experiment: Test Example 9: treated filter paper with sucrose bait, housefly, 500 ppm. The settings on record: 0.7 mL on filter paper, female adult housefly, after 24 hours. As for the experimental part:
Each formulation comprising the Present compound 5, 17, 25, 26, 27, 31, 35, 36, 37 or 38, or the N-oxide 3, the N-oxide 4, or the N-oxide 5 prepared by the process according to the Formulation example 5 was diluted with water until the concentration of the active ingredient reached 500 ppm to prepare a test chemical solution.
The bottom of the polyethylene cup having 5.5 cm diameter was matted with the same size of a filter paper, and 0.7 mL of the test chemical solution was added dropwise to the filter paper, and 30 mg sucrose as bait was placed in the cup uniformly. Ten (10) heads of female adult housefly (Musca domestica) were released into the polyethylene cup, and the cup was covered with a lid. After 24 hours, the life and death of housefly was investigated, and the number of dead insects was counted, and the mortality of insects was calculated by the following equation. Mortality of insects (%)=(the number of dead insects/the number of test insects)×100

The subject of assay [6] is cotton aphid (Aphis gossypii). As to the kind of experiment: Test Example 2: foliar spray on cucumber seedling infested with cotton aphid, 200 ppm. Particulars: 144 h, spray 20 mL/seedling on cucumber, 6 days after spraying, read-out: controlling value.
Assay [7] relates to brown planthopper (Nilaparvata lugens). Put plainly: Test Example 5: spray on rice seedling, brown planthopper, 200 ppm. The settings on record: 144 h, 10 mL spray on rice seedling, 3rd to 4th instar larvae, after 6 days, 25° C., read-out: controlling value.
Assay [8] has as its system house mosquito (Culex pipiens pallens). Put plainly: Test Example 10: house mosquito larvae in treated water. Particulars: 0.7 mL of 500 ppm solution in 100 ml water (3.5 ppm), last instar larvae, after 1 day. How it is done:
The formulation comprising the Present compounds 4 prepared by the process according to the Formulation example 5 was diluted with water until the concentration of the active ingredient reached 500 ppm to prepare a test chemical solution.
Zero point seven(0.7) mL of the testg chemical solution was added to ion-changed water 100 ml (the concentrataion of the active ingredient was 3.5 ppm). Twently (20) heads of the last instar larvae of […] house mosquito (Culex pipiens pallens) were released […], and after 1 day, the life and death of house mosquito was investigated, and the number of dead insects was counted, and the mortality of insects was calculated by the following equation. Mortality of insects (%)=(the number of the dead insects/the number of the test insects)×100

Regarding `CCS(=O)(=O)c1cccnc1-c1cc(C(F)(F)F)c(OCC(F)(F)C(F)(F)F)nn1` [Present compound 34], the pest or weed control at 500 ppm in assay [1] was at least 80%; in assay [3] it was at least 90%. Also, the pest or weed control at 200 ppm in assay [2] was at least 80%. Also, in assay [4], the pest or weed control at 50 ppm was at least 85%.

Regarding `CCS(=O)(=O)c1cc(C(F)(F)F)cnc1-c1ccc(OCC(F)(F)C(F)F)nn1` [Present compound 31], the morality of insects in assay [5] came to 100%.

Consider `CCS(=O)(=O)c1cc(C(F)(F)F)cnc1-c1ccc(OCC(F)(F)C(F)(F)F)[n+]([O-])n1` [N-oxide 4], for which, in assay [5], the morality of insects came to 100%.

Turning to `CCS(=O)(=O)c1cccnc1-c1ccc(OCC(F)(F)C(F)F)nn1` [Present compound 8], the values for the pest or weed control at 500 ppm in assay [1] and in assay [3] were at least 80% and at least 90%, respectively. Besides, the pest or weed control at 200 ppm is at least 90% in assay [6], at least 80% in assay [2] and at least 90% in assay [7]. In addition, the pest or weed control at 50 ppm in assay [4] is at least 85%.

On to `CCS(=O)(=O)c1cccnc1-c1cc(C)c(OCC(F)(F)C(F)F)nn1` [Present compound 35], for which the pest or weed control at 500 ppm in assay [1] was at least 80%; in assay [3] it was at least 90%. In assay [5], the morality of insects was 100%. The results for the pest or weed control at 200 ppm in assay [6], in assay [2] and in assay [7] were at least 90%, at least 80% and at least 90%, respectively. The pest or weed control at 50 ppm in assay [4] was at least 85%.

`CCC(Oc1ccc(-c2ncccc2S(=O)(=O)CC)nn1)C(F)(F)F` (stereo not drawn) [Present compound 26]: the morality of insects in assay [5] is 100%.

For `CCS(=O)(=O)c1cccnc1-c1n[n+]([O-])c(OCC(F)(F)C(F)(F)F)cc1C` [N-oxide 3], the morality of insects in assay [5] was 100%.

For `CCSc1cccnc1-c1ccc(OCC(F)(F)C(F)(F)F)nn1` [Present compound 27], the pest or weed control at 500 ppm in assay [1] was at least 80%; in assay [3] it was at least 90%. Further, in assay [5], the morality of insects was found to be 100%. The pest or weed control at 200 ppm in assay [6] was at least 90%; in assay [2], at least 80%; in assay [7] it was at least 90%. Also, the pest or weed control at 50 ppm in assay [4] is at least 85%.

As to `CC[S+]([O-])c1cccnc1-c1cc(C)c(OCC(F)(F)C(F)(F)F)nn1` (stereo not drawn) [Present compound 38], the pest or weed control at 500 ppm was at least 80% in assay [1] and at least 90% in assay [3]. In assay [5], this compound showed a morality of insects of 100%. Besides, the pest or weed control at 200 ppm in assay [6] is at least 90%; in assay [2], at least 80%; in assay [7] it was at least 90%.

Take `CC[S+]([O-])c1cccnc1-c1cc(C)c(OCC(F)(F)C(F)F)nn1` (stereo not drawn) [Present compound 37]: the pest or weed control at 500 ppm was at least 80% in assay [1] and at least 90% in assay [3]. Moreover, the morality of insects in assay [5] came to 100%. For the same compound, the pest or weed control at 200 ppm in assay [6] and in assay [7] was at least 90% each time.

For the compound `CCS(=O)(=O)c1cccnc1-c1ccc(OCC(Cl)(Cl)Cl)nn1` [Present compound 4], the insect mortality in assay [8] is on record as at least 95%. Also, the pest or weed control at 200 ppm in assay [6] is at least 90%. Moreover, the pest or weed control at 500 ppm in assay [3] is at least 90%. In assay [4], the pest or weed control at 50 ppm was at least 85%.

For `CCS(=O)(=O)c1cc(C(F)(F)F)ccc1-c1ccc(OCC(F)(F)F)nn1` [Present compound 1], the pest or weed control at 50 ppm in assay [4] is at least 85%.

Turning to `CCS(=O)(=O)c1cc(C(F)(F)F)cnc1-c1ccc(OCC(F)(F)C(F)F)[n+]([O-])n1` [N-oxide 5], the morality of insects in assay [5] amounted to 100%.

On to `CCS(=O)(=O)c1cccnc1-c1ccc(OCC(F)(F)F)nn1` [Present compound 5], for which, in assay [5], the morality of insects came out at 100%.

On to `CCS(=O)(=O)c1cccnc1-c1ccc(OCC(C)(C(F)(F)F)C(F)(F)F)nn1` [Present compound 25], for which, in assay [5], the morality of insects stood at 100%.

In assay [5], `CCS(=O)(=O)c1cccnc1-c1ccc(OCC(F)(F)C(F)(F)C(F)(F)F)nn1` [Present compound 17] came in with a morality of insects of 100%.

Take `CCS(=O)(=O)c1cccnc1-c1nnc(OCC(F)(F)C(F)(F)F)cc1C` [Present compound 30]: the pest or weed control at 200 ppm in assay [2] is at least 80%.

On to `CCS(=O)(=O)c1cccnc1-c1cc(C)c(OCC(F)(F)C(F)(F)F)nn1` [Present compound 36], for which the pest or weed control at 500 ppm was at least 80% in assay [1] and at least 90% in assay [3]. In assay [5], the morality of insects came out at 100%. In addition, the values for the pest or weed control at 200 ppm in assay [6], in assay [2] and in assay [7] were at least 90%, at least 80% and at least 90%, respectively.

As to `CCS(=O)(=O)c1cccnc1-c1cc(C(F)(F)F)c(OCC(F)(F)C(F)F)nn1` [Present compound 33], the pest or weed control at 500 ppm in assay [1] was at least 80%; in assay [3], at least 90%. Moreover, the pest or weed control at 200 ppm in assay [2] was at least 80%.

Regarding `CCS(=O)(=O)c1cc(C(F)(F)F)cnc1-c1ccc(OCC(F)(F)C(F)(F)F)nn1` [Present compound 28], the pest or weed control at 200 ppm in assay [6] was at least 90%; in assay [2], at least 80%; in assay [7] it was at least 90%. In addition, in assay [4], the pest or weed control at 50 ppm is at least 85%.

Take `CC[S+]([O-])c1cccnc1-c1ccc(OCC(F)(F)C(F)(F)F)nn1` (stereo not drawn) [Present compound 29]: the pest or weed control at 200 ppm in assay [6] and in assay [7] was at least 90% in each case. Besides, the pest or weed control at 500 ppm in assay [3] is at least 90%. For the same compound, the pest or weed control at 50 ppm in assay [4] is at least 85%.
